Data on three compounds can be found in patent US5124157A, “Method and device for administering dexmedetomidine transdermally” (Cygnus Therapeutic Systems, priority 1989, dated 1992).

Entries after “also recorded” stand apart in the source; their conditions may differ.

For one data set, the system named is alpha-2 receptor. The following applies: background, cited from earlier work; for activity/potency of the isomers (in words): isomers compared with each other.
For data set [1] the following is noted: no data given; cited from earlier work.
Data set [2] is described as follows: skin permeability, base versus salts (general statement). Particulars: free base vs its salts; no data given. The data set is classed as in vitro ADME.

With `Cc1cccc(C(C)c2cnc[nH]2)c1C` (stereo not drawn) [Medetomidine, 4(5)-[alpha-methyl-2,3-dimethylbenzyl] imidazole], the “alpha-2 receptor agonist potency and selectivity (in words)” value with alpha-2 receptor was “potent and selective alpha-2 receptor agonist”.
Regarding `Cc1cccc([C@@H](C)c2cnc[nH]2)c1C` [Preparation 1-isomer], the “activity/potency of the isomers (in words)” value in the data set with alpha-2 receptor was “far less potent”.
Regarding `Cc1cccc([C@H](C)c2cnc[nH]2)c1C` [dexmedetomidine], the “activity/potency of the isomers (in words)” value with alpha-2 receptor is reported as “the active isomer”. Moreover, the “clearance rate from the body (in words)” value in data set [1] is reported as “quite high; also recorded: relatively high”. For the same compound, the “skin permeability of base form relative to salts (in words)” value in data set [2] is reported as “the skin is somewhat more permeable to the base form of the drug than its salts”.
